The subject of the assay is granulocyte-macrophage colony-forming units (CFU-GM). Kind of assay: Granulocyte-macrophage colony-forming units (CFU-GM), semisolid colony-forming cell assay, Cyp treated T47D tumor bearing mice. As to conditions: for CFU-GM/10^5 nucleated BM cells: Cyp 120 mg/kg i.p. daily x6, PLAP 7.5 mg/kg s.c. days 0, 2, 4, 6; for CFU-GM per femur: calculated: nucleated cells in the femur x CFU-GM. Type of assay: in vivo, mouse. The protocol:
Again, first-generation hybrid BDF1 (C57BL/6 female×DBA/2 male) 10 weeks old adult female mice bearing T47D tumors (2.6-3.3 cm^3) were used. In the first group, mice received no treatment. In the second and third groups, mice were administered 120 mg/kg of Cyp intraperitoneally once a day for 6 consecutive days. In a third group, mice were also administered 7.5 mg/kg of PALP subcutaneously on days 0, 2, 4 and 6. On the days indicated in TABLE 4, the animals were killed, then the bone marrow was flushed from the femurs with Iscove's modified Dulbecco's medium (Gibco BRL, Gaithersburg, MD, USA). This was followed by standard erythrocyte lysis and then by counting the number of nucleated bone marrow (BM) cells per femur using a hemocytometer.
To measure the formation of the granulocyte-macrophage colony-forming units (CFU-GM), a semisolid colony-forming cell assay was used. Equal numbers of nucleated bone marrow cells (isolated on days as indicated above) were plated in 35-mm Petri dishes (Costar, Cambridge, MA, USA) in Iscove's modified Dulbecco's medium supplemented with 1% methylcellulose, 30% horse serum (Gibco), 10% WEHI-3B conditioned medium as a source of growth factors, 4 mM L-glutamine, 0.25 mM α-thioglycerol (Gibco), 1% deionized bovine serum albumin (Sigma), and antibiotics (Gibco). Cells were cultured at 37° C. in 5% CO2/95% air atmosphere. CFU-GM was counted on day 9. Three parallel plates were used for each 3 animals (9 plates for one number). Colonies containing at least 50 cells were counted which is a generally accepted value in the literature. In TABLE 4, “CFU-GM per femur” is a calculated value derived from multiplying the number of nucleated cells in the femur with the number of CFU-GM; this number gives the number of CFU-GM in one femur. Each value is expressed as the mean±standard deviation of 9 plates (derived from 3 animals).

With `O.O=P1(N(CCCl)CCCl)NCCCO1` (centres unmarked) [Cyp, 2-[Bis (2-chloroethyl)amino] tetrahydro-2H-1,3,2-oxazaphosphorine 2-oxide monohydrate], the “CFU-GM/10^5 nucleated BM cells” value by setting is: (BM isolated day 0) 78.1 ± 6.1; (BM isolated day 3) 34.5 ± 7.2; (BM isolated day 6) 25.8 ± 4.4; (BM isolated day 9) 98.5 ± 8.0. The CFU-GM per femur runs as follows: (day 0) 1,101; (day 3) 321; (day 6) 80; (day 9) 482.

These data come from patent publication US20240165209A1, “PLACENTAL ALKALINE PHOSPHATASE FOR REDUCING THE LOSS OF RED BLOOD CELLS, WHITE BLOOD CELLS, AND PLATELETS IN CHEMOTHERAPY TREATED CANCER PATIENTS” (ZOLTAN LABORATORIES, LLC, priority 2021, published 2024).
